Test results: patent US20070197452A1, “Treatment of amyloid-related diseases” (priority 2006, published 2007)
“Also recorded” adds a separate entry of the source.

How the values were obtained:
[1] = system: TgCRND8 mice; test: Open field test for motor activity; format: in vivo, mouse; conditions: treated TgCRND8 mice vs untreated TgCRND8 and non-Tg littermates
Experimental: (§1) Behavioural tests: Morris Water Maze testing was performed as previously described. After non-spatial pre-training, mice underwent place discrimination training for 5 days with 4-trials per day, followed by a cued visible platform to rule out general motivational, learning deficits and motor problems, and a probe trial to evaluate memory. […] Open field test for motor activity was preformed as described previously. Duration of walking, pausing and grooming were analyzed as indices of spontaneous locomotor activity. Sensorimotor function was examined with an Economex™ accelerating rotarod (Columbus Instruments, Columbus, Ohio), as described elsewhere. The rod was set to accelerate at a rate of 0.2 r.p.m./s, from an initial, constant speed of 5 r.p.m. Latency to fall was recorded in four daily trials, conducted at 30 min intervals. All mice were trained for seven days before testing. The test day performance score for each animal was obtained by summing its latency to fall over the four trials
Behavioral tests. Morris water maze testing was carried out as previously described. After nonspatial pretraining, mice underwent place discrimination training for 5 d with four trials per day, followed by a cued visible platform trial and a probe trial. An open-field test for motor activity was carried out as described previously. Sensorimotor function was assessed with an Economex accelerating rotarod (Columbus Instruments) as previously described.
Behavioural tests. Morris Water Maze testing was performed as previously described. After non-spatial pre-training, mice underwent place discrimination training for 5 days with 4-trials per day, followed by a cued visible platform to rule out general motivational, learning deficits and motor problems, and a probe trial to evaluate memory. The probe trial was conducted at 72 h after the last testing, and used an annulus-crossing index to assess spatial recall. […]
(§2) Duration of walking, pausing and grooming were analyzed as indices of spontaneous locomotor activity. […] Latency to fall was recorded in four daily trials, conducted at 30 min intervals. […]

[2] = system: TgCRND8 mice; test: Accelerating rotarod, sensorimotor function; format: in vivo, mouse; conditions: treated vs untreated TgCRND8 mice and non-Tg littermates
Experimental: as §1
Behavioral tests. Morris water maze testing was carried out as previously described. […] Sensorimotor function was assessed with an Economex accelerating rotarod (Columbus Instruments) as previously described.
as §2

[3] = molecular target: T1, Aβ oligomeric species (Homo sapiens, UniProt P05067); test: Western blot of soluble brain fractions for Aβ species; format: in vivo, mouse
T1 construct: from tissue; host or cells: soluble fraction of hemi-brain homogenates of TgCRND8 transgenic mice
T1 sequence (P05067 672-713 limits assumed): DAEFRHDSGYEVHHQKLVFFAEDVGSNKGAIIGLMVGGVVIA
Experimental: Soluble Aβ oligomer analyses. Levels of soluble Aβ oligomers were measured by a dot-blot assay with oligomer-specific antibodies on all brain homogenates from all experimental groups. Soluble oligomers were also examined by western blot analyses.
Samples were centrifuged (100,000 g, 20 min, 4° C.), supernatant collected and frozen at −80° C. until use. Proteins (20 μg) were separated by SDS-PAGE on a 10-20% Tris-Tricine gel, transferred to a nitrocellulose membrane, blocked for 1 h at room temp with 8% non-fat milk and incubated overnight with anti-Aβ (6E10; 1:2,500). Membranes were rinsed with TBST, exposed to anti-mouse (1:5,000) for 1 h at room temperature, washed with TBST (6×10 min) and developed using enhanced chemiluminescence. Blots were stripped and re-probed with either anti-APP (22C11; 1:1,000) or anti-GAPDH (1:10,000) to confirm equal protein loading.

[4] = system: long term potentiation (LTP) in mouse hippocampal slices; test: Long term potentiation in hippocampal slices with 7PA2 conditioned medium; format: cell-based
Experimental: Long Term Potentiation. Field potentials were recorded in CA1 of mouse hippocampus by standard procedures. Swiss Webster mice between the ages of P16 and P26 were anesthetized with isoflurane. […] The hippocampus from each hemisphere was isolated and 350 μm coronal sections were made. […] Once placed in the chamber, slices were continuously perfused by a closed loop containing 15 ml of ACSF to conserve the oligomeric Aβ. […] A bipolar stimulating electrode (World Precision Inst.) was placed in the Schaffer collaterals to deliver baseline stimuli and tetani. A borosilicate glass recording electrode (2-4 MΩ) containing ACSF was positioned approximately 75-200 μm from the stimulating electrode. […] Test stimuli were delivered at 0.05 Hz. To induce LTP, 4 tetani (100 Hz for 1 second) were delivered 5 minutes apart. Field potential responses were amplified 10× using an Axopatch 200B. The data was sampled at 10 kHz and filtered at 2 kHz. Traces were analyzed using pClamp 9.2. The slope of the field potential was estimated using approximately 10-60% of the total response.

[5] = system: transgenic TauP301L mouse model; test: Synaptophysin quantification in TgTauP301L mice; format: in vivo; conditions: TgTauP301L mice after treatment
Experimental: Synaptophysin immunohistochemical staining was performed on 3 evenly spaced saggital sections of paraformaldehyde-fixed treated and control mice. Sections were immunolabelled for synaptophysin with anti-synaptophysin IgG (1:40; Roche, Laval, PQ). Digital images were captured and analyzed as described above. Within each section, three randomly chosen 100 μm2 areas of the CA1 region of the hippocampus were counted for synaptophysin reactive cell bodies and boutons. The results are expressed as the mean of the number of reactive bodies and boutons per 100 μm2 [33, 34].
Synaptophysin quantification. Immunohistochemical staining was carried out for synaptophysin on three evenly spaced sagittal sections of paraformaldehyde-fixed treated and control mice. Sections were immunolabeled for synaptophysin with synaptophysin-specific IgG (1:40; Roche). Digital images were captured and analyzed as described above. Within each section, three randomly chosen 100 μm2 areas of the CA1 region of the hippocampus were counted for synaptophysin-reactive cell bodies and boutons. The results are expressed as the mean of the number of reactive bodies and boutons per 100 μm2 [33, 34].

[6] = molecular target: T2, β-secretase (Homo sapiens, UniProt P56817); test: In vitro β-secretase activity assay; format: cell-based
T2 construct: endogenous in cells
T2 sequence (P56817 46-501): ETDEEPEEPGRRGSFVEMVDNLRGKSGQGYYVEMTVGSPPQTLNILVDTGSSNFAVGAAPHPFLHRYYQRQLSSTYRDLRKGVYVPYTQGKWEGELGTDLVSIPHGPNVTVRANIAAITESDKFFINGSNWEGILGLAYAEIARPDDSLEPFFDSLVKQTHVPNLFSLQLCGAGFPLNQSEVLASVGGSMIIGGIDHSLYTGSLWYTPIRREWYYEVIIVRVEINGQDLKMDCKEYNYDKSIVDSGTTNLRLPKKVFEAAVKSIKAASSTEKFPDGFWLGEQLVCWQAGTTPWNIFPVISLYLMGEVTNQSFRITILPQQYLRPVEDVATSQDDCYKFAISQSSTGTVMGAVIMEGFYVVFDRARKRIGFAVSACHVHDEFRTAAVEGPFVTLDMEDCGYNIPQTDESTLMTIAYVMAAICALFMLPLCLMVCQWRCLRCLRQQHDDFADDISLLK

[7] = system: TgCRND8 mice; test: Morris water maze spatial reference memory test; format: in vivo, mouse; conditions: separate cohort; 28 days of treatment from 5 months of age; data not shown
[8] = 4-month-old TgCRND8 mice, treated (n=4) vs untreated (n=4)
[9] = 4-month-old treated vs untreated TgCRND8 mice, densitometry

Structure (SMILES): OC1C(O)C(O)C(O)C(O)C1O (stereo not drawn) [scyllo-cyclohexanehexol, 1,3,5/2,4,6-(scyllo-) cyclohexanehexol]
- open field: grooming, pausing, walking / activity levels [1]: indistinguishable; also recorded: does not affect activity levels
- open field: grooming, pausing, walking / activity levels ([1]; listed as AZD-103): does not affect activity levels
- open field: grooming, pausing, walking / activity levels ([1]; listed as Scyllo-cyclohexanehexol): no effect on grooming or activity
- rotarod sensorimotor function [2]: no difference; also recorded: indistinguishable
- high-molecular-weight Aβ species [3, 8]: decrease in high-molecular-weight Aβ species
- smaller Aβ oligomers [3, 8]: increase in smaller oligomers
- increase in low-molecular-weight trimeric Aβ species [3, 9]: 282±5%
- reduction of high-molecular-weight Aβ oligomeric species [3, 9]: 25±4.5%
- synaptic response in the absence of a potentiating tetanus ([4]; baseline transmission, data not shown): did not change synaptic response
- direct effect on LTP ([4]; compound-treated medium from plain CHO cells): no direct effect on LTP
- synaptophysin reactivity / synaptic loss [5]: unchanged
- synaptophysin reactivity / synaptic loss ([5]; listed as AZD-103): unchanged
- synaptophysin reactivity / synaptic loss ([5]; listed as scyllocyclohexanehexol): no effect on synaptic loss
- β-secretase enzyme activity [6]: no effect
- probe trial, % time in target quadrant, compared with non-Tg littermates [7]: not statistically different from non-Tg littermates
